Patent US9677109B2, “Rapid determination of microbial growth and antimicrobial susceptibility” (priority 2013, dated 2017)

How the values were obtained:
Type in all cases: cell-based
[1] = system: Staphylococcus aureus (STAU); experiment: Culture (Cx) susceptibility result, respiratory specimens; also: key: S: susceptible; R: resistant
Procedure: DHMC specimens were 7-21 days old. […] Controls used standard culturing methods (Cx).
(ABCC). Concurrent quantitative culture (qCx) was performed on specimens.

[2] = system: E. coli; experiment: 2-NBDG uptake fluorescence labeling; settings: overnight refrigerator stock, approximately 1 min, 1 μM 2-NBDG
Source text: (§1) 2-NBDG (Molecular Probes) is a fluorescent derivative (green channel) of D-glucose that is internalized by active bacteria.

[3] = system: H. influenzae; experiment: 2-NBDG uptake fluorescence labeling; settings: overnight refrigerator culture, viability verified
Source text: as §1

[4] = system: K. pneumoniae; experiment: 2-NBDG uptake fluorescence labeling; settings: overnight refrigerator stock, approximately 1 min, 1 μM 2-NBDG
Source text: as §1

[5] = system: S. aureus; experiment: 2-NBDG uptake fluorescence labeling; settings: overnight refrigerator culture, viability verified
Source text: as §1

[6] = system: E. coli; experiment: DiBAC4(3) membrane potential staining; settings: heat-killed E. coli, 10 g/ml DiBAC4(3), 15 min at room temp
Procedure: DiBAC4(3) (Molecular Probes) is an anionic dye that enters depolarized cells (i.e., cells lacking a membrane potential) and fluoresces in the […] channel when it binds to intracellular proteins or membranes. Using this indicator, 18.5% of an overnight refrigerator stock (control) and 95% of heat-killed E. coli stained with 10 µg/ml DiBAC4(3) after a 15 min incubation period at room temp.

[7] = system: damaged membranes; experiment: Propidium iodide membrane integrity staining; settings: compared with YO-PRO-1
Source text: Propidium iodide (PI; Sigma) is another red fluorescent DNA-intercalcater that penetrates damaged membranes but not intact membranes.

[8] = system: heat-killed cells and isopropyl alcohol killed cells; experiment: CFDA/CFDA-SE esterase fluorescence in killed cells; settings: two hour post-heat-kill delay
Source text: Carboxyfluorescein diacetate/carboxyfluorescein diacetate succinimidyl ester (CFDA/CFDA-SE; Molecular Probes) compounds are converted into amine-reactive fluorescent molecules when cleaved by esterases present within active cells. When CFDA-SE is taken up by live cells, the fluorescent molecule produced by esterase cleavage and amine reaction is retained inside the cell. […] The product formed by uptake and processing of CFDA, on the other hand, should be more “leaky” over time and may exit a dead cell. […] Shorter delay times have not yet been investigated but may be compatible with avoiding false positive results while providing a shorter assay period.

[9] = system: Klebsiella pneumoniae (KP); experiment: MADM ertapenem nonsusceptibility / KPC assay
Procedure: We adapted a commercial inverted microscope and camera with custom image analysis software and a purpose-built 32-channel disposable fluidic cassette (FIG. 4A). Cassette flowcells (FIG. 4B) had transparent top and bottom surfaces to allow microscope imaging. The bottom surface was coated with poly-L-lysine to immobilize live bacteria.
We grew isolates on blood agar, suspended colonies in tryptic soy broth for 2 hours, then centrifuged and resuspended log-phase bacteria in low ionic strength electrokinetic buffer.
MADM system analysis was performed using a 32-channel disposable fluidic cassette (FIG. 4A) to measure growth of immobilized bacteria. We separately tested PA clinical isolates for nonsusceptibility (NS) with amikacin (AN) at 32 μg/mL, and AB isolates with imipenem (IMP) at 8 μg/mL or ceftazidime (CAZ) at 8 μg/mL.
10 μL aliquots of 5E+7 CFU/mL were pipetted into separate flowcells for each isolate and test condition. Microorganisms were electrokinetically concentrated onto the flowcell detection surface with an electrical field to the positively charged lower surface to immobilize cells and yield 10-100 bacteria per field of view (FIG. 4B). […] The system measured growth at 10-minute intervals. […] Growth was evaluated, interpreting results for PA, AB, and KP-ETP as NS if growth had not arrested within 3 hours. […]

## Cc1onc(-c2ccccc2)c1C(=O)N[C@@H]1C(=O)N2[C@@H]1SC(C)(C)[C@@H]2C(=O)O [OXA, oxacillin]
[1]; specimen DH 425, Mini-BAL
  Cx (culture result) susceptibility: S
[1]; specimen DH 427, Mini-BAL
  Cx (culture result) susceptibility: S
[1]; specimen DH 439, Mini-BAL
  Cx (culture result) susceptibility: R
[1]; specimen DH 440, BAL
  Cx (culture result) susceptibility: S
[1]; specimen DH 457, BAL
  Cx (culture result) susceptibility: S
[1]; specimen DH 485, BAL
  Cx (culture result) susceptibility: S
[1]; specimen DH 509, BAL
  Cx (culture result) susceptibility: S
[1]; specimen DH 514, Mini-BAL
  Cx (culture result) susceptibility: S
[1]; specimen DH 543, BAL
  Cx (culture result) susceptibility: S
[1]; specimen DH 550, BAL
  Cx (culture result) susceptibility: S
[1]; specimen DH 556, Mini-BAL
  Cx (culture result) susceptibility: S
[1]; specimen T12, ETA
  Cx (culture result) susceptibility: R

## O=[N+]([O-])c1ccc(N[C@H]2C(O)O[C@H](CO)[C@@H](O)[C@@H]2O)c2nonc12 (stereo partly drawn) [2-NBDG]
[2]
  fluorescent labeling: fluorescently labeled
[3]
  fluorescent labeling: did not fluoresce
[4]
  fluorescent labeling: fluorescently labeled
[5]
  fluorescent labeling: did not fluoresce

## CCCCN1C(=O)C(=CC=Cc2c(O)n(CCCC)c(=O)n(CCCC)c2=O)C(=O)N(CCCC)C1=O [DiBAC4(3)]
[6]
  cells stained: 95%

## CC[N+](C)(CC)CCC[n+]1c(-c2ccccc2)c2cc(N)ccc2c2ccc(N)cc21.[I-].[I-] [PI, Propidium iodide]
[7]
  fluorescent signal intensity vs. background: not as high as for YO-PRO-1

## carboxyfluorescein diacetate succinimidyl ester [CFDA-SE]
[8]
  fluorescence: no fluorescence was observed

## C[C@@H](O)[C@H]1C(=O)N2C(C(=O)O)=C(S[C@@H]3CN[C@H](C(=O)Nc4cccc(C(=O)O)c4)C3)[C@H](C)[C@H]12 [ETP, ertapenem]
[9]; ETP at 16 μg/mL, FIG. 20
  growth of susceptible strains: fail to grow
[9]; ETP exposure, KPC clinical isolate, FIG. 19
  growth morphology: abnormal growth morphology
